# Data from the supplement of paper PMC4862054.
# System: CAL-148
# Experiment: normalised response (% of control), CellTox Green; higher = less cell death (100 = DMSO, 0 = benzethonium chloride kill control)
# Conditions: incubation time: 72 h
# Outline: (§1)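 Breast cancer cell lines (20 µl suspension) were seeded into 384-well plates holding compound at 5 concentrations in 10-fold steps over a compound-specific 10,000-fold range, then incubated 72 h. CellTox Green fluorescence (485/520 nm) was read first, then CellTiter-Glo luminescence after 10 min at room temperature. Each plate was normalised to 0.1 % DMSO (100) and a positive kill control (0). Each value is the normalised signal at a single concentration of the series.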
row,Compound,normalised response
1,Nc1nc(Cl)nc2c1ncn2[C@H]1C[C@H](O)[C@@H](CO)O1 [Cladribine] (10 nM),80.9%
2,COc1cccc2c1C(=O)c1c(O)c3c(c(O)c1C2=O)C[C@@](O)(C(=O)CO)C[C@@H]3O[C@H]1C[C@H](N)[C@H](O)[C@H](C)O1 [Doxorubicin] (10 nM),107%
3,CC(=O)O[C@]1(C(C)=O)CC[C@H]2[C@@H]3C=C(C)C4=CC(=O)CC[C@]4(C)[C@H]3CC[C@@]21C [Megestrol acetate] (100 nM),66.4%
4,CN(C)C/C=C/C(=O)Nc1cc2c(Nc3ccc(F)c(Cl)c3)ncnc2cc1O[C@H]1CCOC1 [Afatinib] (10 nM),97.5%
5,COc1cccc2cc(-c3nc([C@H]4CC[C@H](C(=O)O)CC4)n4ncnc(N)c34)[nH]c12 [OSI-027] (100 nM),102%
6,N#CC[C@H](C1CCCC1)n1cc(-c2ncnc3[nH]ccc23)cn1 [Ruxolitinib] (100 nM),78.4%

# System: CAL-51
# Experiment: as above
# Conditions: incubation time: 72 h
# Outline: as §1
row,Compound,normalised response
1,O=C(c1ccc(C(=O)N2CCC(N3CCCC3)CC2)c(Nc2ccccc2)c1)N1CCC(N2CCCC2)CC1 [UNC1215] (300 nM),77.2%
2,CN1CC[C@H](c2c(O)cc(O)c3c(=O)cc(-c4ccccc4Cl)oc23)[C@H](O)C1 [Alvocidib] (100 nM),102%
3,OC[C@H]1O[C@@H](n2cnc3c2N=CNC[C@H]3O)C[C@@H]1O [Pentostatin] (100 nM),102%
4,Nc1nc(Cl)nc2c1ncn2[C@H]1C[C@H](O)[C@@H](CO)O1 [Cladribine] (10 nM),106%
5,COc1cccc2c1C(=O)c1c(O)c3c(c(O)c1C2=O)C[C@@](O)(C(=O)CO)C[C@@H]3O[C@H]1C[C@H](N)[C@H](O)[C@H](C)O1 [Doxorubicin] (10 nM),107%
6,CC(=O)O[C@]1(C(C)=O)CC[C@H]2[C@@H]3C=C(C)C4=CC(=O)CC[C@]4(C)[C@H]3CC[C@@]21C [Megestrol acetate] (100 nM),105%
7,CN(C)C/C=C/C(=O)Nc1cc2c(Nc3ccc(F)c(Cl)c3)ncnc2cc1O[C@H]1CCOC1 [Afatinib] (10 nM),109%
8,COc1cccc2cc(-c3nc([C@H]4CC[C@H](C(=O)O)CC4)n4ncnc(N)c34)[nH]c12 [OSI-027] (100 nM),105%
9,N#CC[C@H](C1CCCC1)n1cc(-c2ncnc3[nH]ccc23)cn1 [Ruxolitinib] (100 nM),99.5%

# System: HDQ-P1
# Experiment: as above
# Conditions: incubation time: 72 h
# Outline: as §1
row,Compound,normalised response
1,CN1CC[C@H](c2c(O)cc(O)c3c(=O)cc(-c4ccccc4Cl)oc23)[C@H](O)C1 [Alvocidib] (100 nM),92.7%
2,OC[C@H]1O[C@@H](n2cnc3c2N=CNC[C@H]3O)C[C@@H]1O [Pentostatin] (100 nM),77.7%
3,Nc1nc(Cl)nc2c1ncn2[C@H]1C[C@H](O)[C@@H](CO)O1 [Cladribine] (10 nM),62.4%
4,COc1cccc2c1C(=O)c1c(O)c3c(c(O)c1C2=O)C[C@@](O)(C(=O)CO)C[C@@H]3O[C@H]1C[C@H](N)[C@H](O)[C@H](C)O1 [Doxorubicin] (10 nM),110%
5,CC(=O)O[C@]1(C(C)=O)CC[C@H]2[C@@H]3C=C(C)C4=CC(=O)CC[C@]4(C)[C@H]3CC[C@@]21C [Megestrol acetate] (100 nM),81.5%
6,CN(C)C/C=C/C(=O)Nc1cc2c(Nc3ccc(F)c(Cl)c3)ncnc2cc1O[C@H]1CCOC1 [Afatinib] (10 nM),101%
7,COc1cccc2cc(-c3nc([C@H]4CC[C@H](C(=O)O)CC4)n4ncnc(N)c34)[nH]c12 [OSI-027] (100 nM),114%
8,N#CC[C@H](C1CCCC1)n1cc(-c2ncnc3[nH]ccc23)cn1 [Ruxolitinib] (100 nM),94.4%

# System: MFM-223
# Experiment: as above
# Conditions: incubation time: 72 h
# Outline: as §1
row,Compound,normalised response
1,CN1CC[C@H](c2c(O)cc(O)c3c(=O)cc(-c4ccccc4Cl)oc23)[C@H](O)C1 [Alvocidib] (100 nM),106%
2,OC[C@H]1O[C@@H](n2cnc3c2N=CNC[C@H]3O)C[C@@H]1O [Pentostatin] (100 nM),99.5%
3,Nc1nc(Cl)nc2c1ncn2[C@H]1C[C@H](O)[C@@H](CO)O1 [Cladribine] (10 nM),104%
4,COc1cccc2c1C(=O)c1c(O)c3c(c(O)c1C2=O)C[C@@](O)(C(=O)CO)C[C@@H]3O[C@H]1C[C@H](N)[C@H](O)[C@H](C)O1 [Doxorubicin] (10 nM),107%
5,CC(=O)O[C@]1(C(C)=O)CC[C@H]2[C@@H]3C=C(C)C4=CC(=O)CC[C@]4(C)[C@H]3CC[C@@]21C [Megestrol acetate] (100 nM),99.2%
6,CN(C)C/C=C/C(=O)Nc1cc2c(Nc3ccc(F)c(Cl)c3)ncnc2cc1O[C@H]1CCOC1 [Afatinib] (10 nM),69%
7,COc1cccc2cc(-c3nc([C@H]4CC[C@H](C(=O)O)CC4)n4ncnc(N)c34)[nH]c12 [OSI-027] (100 nM),105%
8,N#CC[C@H](C1CCCC1)n1cc(-c2ncnc3[nH]ccc23)cn1 [Ruxolitinib] (100 nM),98.4%

# System: Hs578T
# Experiment: as above
# Conditions: incubation time: 72 h
# Outline: as §1
row,Compound,normalised response
1,COc1cccc2c1C(=O)c1c(O)c3c(c(O)c1C2=O)C[C@@](O)(C(=O)CO)C[C@@H]3O[C@H]1C[C@H](N)[C@H](O)[C@H](C)O1 [Doxorubicin] (10 nM),111%
2,CN(C)C/C=C/C(=O)Nc1cc2c(Nc3ccc(F)c(Cl)c3)ncnc2cc1O[C@H]1CCOC1 [Afatinib] (10 nM),97.6%
3,COc1cccc2cc(-c3nc([C@H]4CC[C@H](C(=O)O)CC4)n4ncnc(N)c34)[nH]c12 [OSI-027] (100 nM),108%
4,N#CC[C@H](C1CCCC1)n1cc(-c2ncnc3[nH]ccc23)cn1 [Ruxolitinib] (100 nM),60.9%

# System: DU-4475
# Experiment: as above
# Conditions: incubation time: 72 h
# Outline: as §1
row,Compound,normalised response
1,O=C(c1ccc(C(=O)N2CCC(N3CCCC3)CC2)c(Nc2ccccc2)c1)N1CCC(N2CCCC2)CC1 [UNC1215] (300 nM),101%
2,CN1CC[C@H](c2c(O)cc(O)c3c(=O)cc(-c4ccccc4Cl)oc23)[C@H](O)C1 [Alvocidib] (100 nM),96.8%
3,OC[C@H]1O[C@@H](n2cnc3c2N=CNC[C@H]3O)C[C@@H]1O [Pentostatin] (100 nM),101%
4,Nc1nc(Cl)nc2c1ncn2[C@H]1C[C@H](O)[C@@H](CO)O1 [Cladribine] (10 nM),102%
5,COc1cccc2c1C(=O)c1c(O)c3c(c(O)c1C2=O)C[C@@](O)(C(=O)CO)C[C@@H]3O[C@H]1C[C@H](N)[C@H](O)[C@H](C)O1 [Doxorubicin] (10 nM),101%
